# Data published in patent EP0326066A2, “Condensed diazepinones, process for their preparation and medicaments containing them” (Dr. Karl Thomae GmbH, priority 1988, dated 1989).
# What was measured:
# Speichelsekretion = test: Inhibition of pilocarpine-induced salivation in the rat; type: in vivo, THOM-Ratten; conditions: urethane-anaesthetised rat, i.v.; dose reducing saliva volume by 50%; 2 mg/kg pilocarpine s.c.
# Experimental: Nach Lavy und Mulder (Arch. int. Pharmacodyn. 178, 437-445, (1969)) erhielten mit 1,2 g/kg Urethan narkotisierte männliche THOM-Ratten steigende Dosen der Substanz i.v.. Die Speichelsekretion wurde durch s.c. Gabe von 2 mg/kg Pilocarpin ausgelöst. Der Speichel wurde mit Fließpapier aufgesaugt, die von ihm eingenommene Fläche alle 5 Minuten planimetrisch bestimmt. Die Dosis der Substanz, die das Speichelvolumen um 50% verminderte, wurde graphisch ermittelt.
# Blase = test: Inhibition of the acetylcholine effect on bladder of the guinea pig; type: in vivo, Meerschweinchen; conditions: anaesthetised guinea pig; 10 µg/kg acetylcholine 5 min after test substance; contraction of exposed urinary bladder
# Experimental: (§1) Am narkotisierten Meerschweinchen wurden 5 Minuten nach Gabe der Prüfsubstanz 10 µg/kg Acetylcholin intravenös als auch gleichzeitig intraarteriell injiziert. Dabei wurde die Herzfrequenz durch extrakorporale Ableitung des EKG, der Ausatemwiderstand nach Konzett-Rößler und die Kontraktion der freigelegten Harnblase direkt registriert. Für die Hemmung der Acetylcholinwirkung an den untersuchten Organen wurden Dosis-Wirkungskurven aufgenommen und daraus -log ED₅₀-Werte bestimmt. Ergebnisse siehe Tabelle III.
# [1] = biological target: muscarinischen Rezeptoren (Großhirnrinde); test: Receptor binding test, ³H-NMS displacement, cerebral cortex homogenate; parameters: species or system Sprague-Dawley-Ratten; conditions: rat cerebral cortex homogenate; 0,3 n molar ³H-NMS; 30°C, 45 min; read-out: Rezeptor-Bindungs-Tests IC₅₀ Cortex
# Experimental: (§2) Das Gesamtherz wurde […] Organe wurden abschließend in einem Potter homogenisiert. […] Die Inkubation der Organhomogenate erfolgte bei einer bestimmten Konzentration des Radioliganden und […] Testsubstanzen im Eppendorf-Zentrifugenröhrchen bei 30°C. Die Inkubationsdauer betrug 45 Minuten. Als Radioligand wurde 0,3 n molar 3H-N-Methylscopolamin (3H-NMS) verwendet. Die Inkubation wurde durch Zugabe von […] Puffer mit nachfolgender Vakuumfiltration beendet. Die Filter […] Puffer gespült und […] Summe von spezifischer und unspezifischer Bindung von 3H-NMS. Der Anteil der unspezifischen Bindung wurde definiert als jene Radioaktivität, die in Anwesenheit von 1 μ molar Quinuclidinylbenzilat gebunden wurde. […]. Die IC50-Werte der nicht-markierten Testsubstanzen […] jene Konzentration der Testsubstanz, bei welcher die spezifische Bindung von 3H-NMS an die muscarinischen Rezeptoren in den verschiedenen Organen um 50 % gehemmt wurde. Die Ergebnisse sind aus der Tabelle 1 zu […].
# [2] = biological target: T1, muscarinischen Rezeptoren (Gesamtherz) (Rattus norvegicus, UniProt P10980); test: Receptor binding test, ³H-NMS displacement, whole heart homogenate; parameters: species or system Sprague-Dawley-Ratten; conditions: 0,3 n molar ³H-NMS, 30°C, 45 min, read-out: Rezeptor-Bindungs-Tests IC₅₀ Herz
# T1 construct: Das Gesamtherz wurde mit einer Schere zerkleinert; from tissue; host or cells: rat whole heart homogenate
# T1 sequence (P10980 1-466): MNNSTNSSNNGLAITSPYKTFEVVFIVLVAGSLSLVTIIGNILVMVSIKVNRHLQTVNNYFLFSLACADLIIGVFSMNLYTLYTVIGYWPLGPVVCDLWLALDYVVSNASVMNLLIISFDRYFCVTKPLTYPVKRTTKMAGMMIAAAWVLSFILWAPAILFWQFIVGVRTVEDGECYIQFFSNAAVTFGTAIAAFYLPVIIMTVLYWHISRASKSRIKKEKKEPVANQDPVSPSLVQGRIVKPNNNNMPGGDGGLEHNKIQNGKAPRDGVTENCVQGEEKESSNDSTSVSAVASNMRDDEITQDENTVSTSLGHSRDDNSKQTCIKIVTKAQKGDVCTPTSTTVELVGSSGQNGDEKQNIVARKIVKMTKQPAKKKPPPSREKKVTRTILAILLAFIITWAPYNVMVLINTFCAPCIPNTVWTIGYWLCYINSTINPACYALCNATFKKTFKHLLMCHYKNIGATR
# Experimental: as §2
# vagale Bradykardie (M₂) = test: M1/M2 selectivity in the rat: inhibition of bradycardia evoked by vagus stimulation; type: in vivo, THOM-Ratten; conditions: i.v., dose reducing vagal bradycardia (M₂) by 50%, 5 min after injection
# Experimental: (§3) Die angewandte Methode wurde von Hammer und Giachetti (Life Sciences 31, 2991-2998 (1982)) beschrieben. 5 Minuten nach intravenöser Injektion steigender Dosen der Substanz wurden entweder der rechte Vagus elektrisch stimuliert (Frequenz: 25 Hz; Pulsbreite: 2ms; Reizdauer: 30s; Voltzahl: supramaximal) oder 0,3 mg/kg McN-A-343 in männliche THOM-Ratten intravenös injiziert. Die durch Vagusstimulation hervorgerufene Bradykardie und der durch McN-A-343 verursachte Blutdruckanstieg wurden bestimmt. Die Dosis der Substanzen, die entweder die vagale Bradykardie (M₂) oder den Blutdruckanstieg (M₁) um 50% verminderte, wurde graphisch ermittelt. Ergebnisse siehe Tabelle II.
# Herzfrequenz = test: Inhibition of the acetylcholine effect on heart rate of the guinea pig; type: in vivo, Meerschweinchen; conditions: anaesthetised guinea pig; 10 µg/kg acetylcholine 5 min after test substance; heart rate (ECG)
# Experimental: as §1
# Blutdruckanstieg (M₁) = test: M1/M2 selectivity in the rat: inhibition of blood pressure rise caused by McN-A-343; type: in vivo, THOM-Ratten; conditions: i.v., dose reducing blood pressure rise (M₁) caused by 0,3 mg/kg McN-A-343 by 50%
# Experimental: as §3
# Bronchien = test: Inhibition of the acetylcholine effect on bronchi of the guinea pig; type: in vivo, Meerschweinchen; conditions: anaesthetised guinea pig; 10 µg/kg acetylcholine 5 min after test substance; expiratory resistance (Konzett-Rößler)
# Experimental: as §1, with “bestimmt.” for “bestimmt. Ergebnisse siehe Tabelle III.”
SMILES,-log ED₅₀ Salivation (Speichelsekretion),-log ED₅₀ Blase (Blase),IC50 [1],IC50 [2],-log ED₅₀ Herz (vagale Bradykardie (M₂)),-log ED₅₀ Herz (Herzfrequenz),-log ED₅₀ Blutdruck (Blutdruckanstieg (M₁)),-log ED₅₀ Bronchien (Bronchien)
"O=C1Nc2cccnc2N(C(=O)CCCCCN2CCCCC2)c2ccccc21 [A, 5,11-Dihydro-11-[6-(1-piperidinyl)-1-oxohexyl]-6H-pyrido[2,3-b][1,4]benzodiazepin-6-on]",6.65 Mkg⁻¹,6.20 Molkg⁻¹,60 nM,10 nM,7.75 Mkg⁻¹,6.88 Molkg⁻¹,6.42 Mkg⁻¹,7.49 Molkg⁻¹
"CCN(CC)CC1CCCCN1CC(=O)N1c2ccccc2C(=O)Nc2cccnc21 (stereo not drawn) [B, 11-[[2-[(Diethylamino)methyl]-1-piperidinyl]acetyl]-5,11-dihydro-6H-pyrido[2,3-b][1,4]benzodiazepin-6-on]",5.00 Mkg⁻¹,4.73 Molkg⁻¹,1200 nM,140 nM,6.42 Mkg⁻¹,5.84 Molkg⁻¹,5.63 Mkg⁻¹,5.58 Molkg⁻¹
"CN1CCN(CC(=O)N2c3ccccc3C(=O)Nc3cccnc32)CC1 [C, 5,11-Dihydro-11-[(4-methyl-1-piperazinyl)acetyl]-6H-pyrido[2,3-b][1,4]benzodiazepin-6-on]",6.22 Mkg⁻¹,5.36 Molkg⁻¹,,,,5.85 Molkg⁻¹,,6.57 Molkg⁻¹
"CN1[C@@H]2CC[C@H]1C[C@@H](OC(=O)C(CO)c1ccccc1)C2 (stereo partly drawn) [D, Atropin]",,7.03 Molkg⁻¹,,,7.94 Mkg⁻¹,7.70 Molkg⁻¹,7.34 Mkg⁻¹,
